The text below walks through data of US20240158370A1, “CK1 alpha AND DUAL CK1 alpha / GSPT1 DEGRADING COMPOUNDS” (Innovo Therapeutics, Inc., priority 2022, published 2024).

One test deals with T1, CK1α (Homo sapiens, UniProt P48729+Q96SW2).
T1 construct: CSNK1A1-HiBit KI HEK293(LgBit) Cells; host or cells: HEK293(LgBit) knock-in cells
As to the kind of experiment: HiBiT degradation assay, CK1α, Procedure A. The test is classed as cell-based. The procedure, abridged: (§1)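 10-pt dose response, 10–0.005 μM, 0.1% DMSO; cells 1×10^6/ml in DMEM/10% FBS, 6 h, 37° C; HiBiT lytic detection, luminescence; DC50 + Ymin by 4-parameter fit.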

The target in the next test is GSPT1 (Homo sapiens, UniProt P15170+Q96SW2). Description: HiBiT degradation assay, GSPT1, Procedure A. The test is classed as cell-based. Details: HiBit-GSPT1 KI HEK293(LgBit) Cells; host or cells: HEK293(LgBit) knock-in cells. The procedure, abridged: as §1
GSPT1, sequence (P15170 whole entry): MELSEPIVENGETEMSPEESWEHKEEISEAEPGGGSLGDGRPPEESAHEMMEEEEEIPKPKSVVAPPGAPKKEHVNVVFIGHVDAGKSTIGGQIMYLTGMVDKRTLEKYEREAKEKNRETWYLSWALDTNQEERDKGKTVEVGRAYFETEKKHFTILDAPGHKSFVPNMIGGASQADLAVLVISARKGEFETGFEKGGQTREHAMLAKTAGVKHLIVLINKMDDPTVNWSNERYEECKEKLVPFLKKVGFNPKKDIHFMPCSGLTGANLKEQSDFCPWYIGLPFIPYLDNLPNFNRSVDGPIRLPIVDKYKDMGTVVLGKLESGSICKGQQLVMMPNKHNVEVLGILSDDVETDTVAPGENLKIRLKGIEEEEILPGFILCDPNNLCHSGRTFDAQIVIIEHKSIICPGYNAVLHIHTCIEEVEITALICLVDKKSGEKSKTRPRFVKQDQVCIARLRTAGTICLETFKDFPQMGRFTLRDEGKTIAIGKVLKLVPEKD
GSPT1, sequence (Q96SW2 whole entry): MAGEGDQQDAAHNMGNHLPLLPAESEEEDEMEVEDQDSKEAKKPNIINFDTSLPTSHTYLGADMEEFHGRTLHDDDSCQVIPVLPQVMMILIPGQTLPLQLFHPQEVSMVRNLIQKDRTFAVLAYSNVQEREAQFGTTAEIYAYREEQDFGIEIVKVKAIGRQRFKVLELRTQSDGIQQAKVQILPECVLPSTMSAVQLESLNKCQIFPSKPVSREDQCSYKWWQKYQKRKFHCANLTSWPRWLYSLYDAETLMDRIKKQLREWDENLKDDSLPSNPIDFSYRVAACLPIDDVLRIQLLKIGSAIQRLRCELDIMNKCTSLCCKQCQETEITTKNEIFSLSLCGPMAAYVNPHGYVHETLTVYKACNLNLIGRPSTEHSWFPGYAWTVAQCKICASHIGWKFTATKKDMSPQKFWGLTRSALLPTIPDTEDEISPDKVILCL
GSPT1, sequence (Q16531 whole entry partner): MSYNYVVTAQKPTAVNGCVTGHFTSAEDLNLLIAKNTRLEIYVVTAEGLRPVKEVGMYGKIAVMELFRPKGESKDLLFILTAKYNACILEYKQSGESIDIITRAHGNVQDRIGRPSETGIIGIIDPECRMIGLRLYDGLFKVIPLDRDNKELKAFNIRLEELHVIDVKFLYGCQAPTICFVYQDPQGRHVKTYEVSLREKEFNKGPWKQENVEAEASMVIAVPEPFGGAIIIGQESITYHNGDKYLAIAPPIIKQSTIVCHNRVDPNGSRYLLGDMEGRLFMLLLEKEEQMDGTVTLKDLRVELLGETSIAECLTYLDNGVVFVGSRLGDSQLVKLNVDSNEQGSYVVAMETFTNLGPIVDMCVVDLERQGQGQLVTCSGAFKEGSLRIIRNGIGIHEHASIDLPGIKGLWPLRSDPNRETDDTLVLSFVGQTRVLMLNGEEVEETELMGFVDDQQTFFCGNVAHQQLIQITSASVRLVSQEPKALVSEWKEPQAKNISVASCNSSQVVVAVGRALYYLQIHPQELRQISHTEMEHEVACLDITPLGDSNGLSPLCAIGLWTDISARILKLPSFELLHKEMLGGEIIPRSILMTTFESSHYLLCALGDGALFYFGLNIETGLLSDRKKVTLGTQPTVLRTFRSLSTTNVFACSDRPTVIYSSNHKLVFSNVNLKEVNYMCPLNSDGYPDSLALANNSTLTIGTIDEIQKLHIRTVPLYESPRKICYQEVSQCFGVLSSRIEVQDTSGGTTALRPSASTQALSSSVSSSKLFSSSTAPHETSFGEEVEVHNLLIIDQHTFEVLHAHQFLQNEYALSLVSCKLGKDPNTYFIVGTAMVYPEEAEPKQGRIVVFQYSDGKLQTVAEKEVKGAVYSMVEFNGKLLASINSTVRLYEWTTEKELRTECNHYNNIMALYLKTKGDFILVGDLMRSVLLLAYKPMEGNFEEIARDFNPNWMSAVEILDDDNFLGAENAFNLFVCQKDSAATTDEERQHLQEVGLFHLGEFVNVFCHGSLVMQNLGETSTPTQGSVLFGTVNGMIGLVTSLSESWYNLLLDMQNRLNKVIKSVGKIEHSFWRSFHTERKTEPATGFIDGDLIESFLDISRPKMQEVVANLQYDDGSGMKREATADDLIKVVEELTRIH

T1 sequence (P48729 whole entry): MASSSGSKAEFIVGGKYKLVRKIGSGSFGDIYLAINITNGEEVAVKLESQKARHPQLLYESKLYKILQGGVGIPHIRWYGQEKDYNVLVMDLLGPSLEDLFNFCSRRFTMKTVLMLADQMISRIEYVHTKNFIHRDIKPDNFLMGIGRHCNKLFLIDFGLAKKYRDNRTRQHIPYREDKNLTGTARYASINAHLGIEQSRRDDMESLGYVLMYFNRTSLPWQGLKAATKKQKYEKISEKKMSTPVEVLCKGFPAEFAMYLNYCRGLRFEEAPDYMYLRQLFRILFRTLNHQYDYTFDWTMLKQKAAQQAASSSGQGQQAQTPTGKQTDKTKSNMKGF
T1 sequence (Q96SW2 whole entry): as the sequence (Q96SW2 whole entry) above
T1 sequence (Q16531 whole entry partner): as the sequence (Q16531 whole entry partner) above

Take `CC(C)n1ncc(-c2ccc3c(c2)CN(C2CCC(=O)NC2=O)C3=O)c1-c1ccccc1` (centres unmarked) [Example 426, 3-(5-(1-isopropyl-5-phenyl-1H-pyrazol-4-yl)-1-oxoisoindolin-2-yl)piperidine-2,6-dione]: on CK1α (six hours), the “CK1α Ymin” value is “D (D = >10- 25% remaining)” and the DC50 is less than 25 nM. At GSPT1 (six hours), the DC50 was not below 25 nM and the “GSPT1 Ymin” value is reported as “F (F = >75-100% remaining)”.

With `COc1ccc(-c2nn(C(F)F)cc2-c2ccc3c(c2)CN(C2CCC(=O)NC2=O)C3=O)c(Cl)c1` (centres unmarked) [Example 425, 3-(5-(3-(2-chloro-4-methoxyphenyl)-1-(difluoromethyl)-1H-pyrazol-4-yl)-1-oxoisoindolin-2-yl)piperidine-2,6-dione], on CK1α (six hours), the “CK1α Ymin” value is reported as “D (D = >10- 25% remaining)” and the DC50 is less than 25 nM. On GSPT1 (six hours), this molecule had a DC50 not below 25 nM.

Take `Cn1ncc(-c2ccc3c(c2)CN(C2CCC(=O)NC2=O)C3=O)c1-c1cc(F)cc(F)c1` (centres unmarked) [Example 178]: at CK1α (six hours incubation), the “CK1α Ymin” value was “D (D = >10- 25% remaining)” and the DC50 is less than 25 nM. Moreover, at GSPT1 (six hours incubation), the 50% degradation concentration (DC50) was less than 25 nM and the “GSPT1 Ymin” value is on record as “F (F = >75-100% remaining)”.

Regarding `Cc1cc(Cl)ccc1-c1c(-c2ccc3c(c2)CN(C2CCC(=O)NC2=O)C3=O)ncn1C` (centres unmarked) [Example 254], on CK1α (six hours incubation), the “CK1α Ymin” value was “E (E = >25-75% remaining)” and the 50% degradation concentration (DC50) is less than 25 nM. Also, on GSPT1 (six hours incubation), the DC50 was less than 25 nM and the “GSPT1 Ymin” value is “E (E = >25-75% remaining)”.

In the case of `Cn1cnc(-c2ccc3c(c2)CN(C2CCC(=O)NC2=O)C3=O)c1-c1ccccc1Cl` (centres unmarked) [Example 175], on CK1α (six hours incubation), the “CK1α Ymin” value is given as “D (D = >10- 25% remaining)” and the 50% degradation concentration (DC50) is less than 25 nM. At GSPT1 (six hours incubation), the DC50 was not below 25 nM and the “GSPT1 Ymin” value is “F (F = >75-100% remaining)”.

As to `O=C1CCC(N2Cc3cc(-c4cn(CC(F)(F)F)nc4-c4ccccc4)ccc3C2=O)C(=O)N1` (centres unmarked) [Example 427, 3-(1-oxo-5-(3-phenyl-1-(2,2,2-trifluoroethyl)-1H-pyrazol-4-yl)isoindolin-2-yl)piperidine-2,6-dione], on CK1α (six hours), the “CK1α Ymin” value is given as “C (C = 0-10% remaining)” and the half-maximal degradation concentration (DC50) is less than 25 nM. Besides, at GSPT1 (six hours), the DC50 is not below 25 nM and the “GSPT1 Ymin” value is “F (F = >75-100% remaining)”.

With `Cn1ncc(-c2ccc3c(c2)CN(C2CCC(=O)NC2=O)C3=O)c1-c1cccc(N2CCNCC2)c1` (centres unmarked) [Example 412], on CK1α (six hours), the “CK1α Ymin” value is recorded as “E (E = >25-75% remaining)” and the DC50 was not below 25 nM. Also, at GSPT1 (six hours), the DC50 was not below 25 nM and the “GSPT1 Ymin” value is “F (F = >75-100% remaining)”.

For `Cn1ncc(-c2ccc3c(c2)CN(C2CCC(=O)NC2=O)C3=O)c1-c1ccc2[nH]ccc2c1` (centres unmarked) [Example 218], at CK1α (six hours incubation), the “CK1α Ymin” value was “D (D = >10- 25% remaining)” and the DC50 is not below 25 nM. Further, at GSPT1 (six hours incubation), the DC50 is not below 25 nM and the “GSPT1 Ymin” value is on record as “F (F = >75-100% remaining)”.

On to `Cn1cnc(-c2ccc3c(c2)CN(C2CCC(=O)NC2=O)C3=O)c1-c1cnn(C(C)(C)C)c1` (centres unmarked) [Example 492], for which, on CK1α (six hours), the “CK1α Ymin” value was “F (F = >75-100% remaining)” and the DC50 was not below 25 nM. Also, on GSPT1 (six hours), the half-maximal degradation concentration (DC50) was not below 25 nM and the “GSPT1 Ymin” value is reported as “F (F = >75-100% remaining)”.

Consider `Cn1ncc(-c2ccc3c(c2)CN(C2CCC(=O)NC2=O)C3=O)c1-c1ccc(-n2cccn2)cc1` (centres unmarked) [Example 150], for which, on CK1α (six hours incubation), the “CK1α Ymin” value is reported as “D (D = >10- 25% remaining)” and the DC50 was less than 25 nM. At GSPT1 (six hours incubation), the DC50 was not below 25 nM and the “GSPT1 Ymin” value is recorded as “F (F = >75-100% remaining)”.

For `Cc1cc(C#N)ccc1-c1c(-c2ccc3c(c2)CN(C2CCC(=O)NC2=O)C3=O)ncn1C` (centres unmarked) [Example 180], on CK1α (six hours incubation), the “CK1α Ymin” value is given as “E (E = >25-75% remaining)” and the half-maximal degradation concentration (DC50) is not below 25 nM. On GSPT1 (six hours incubation), the DC50 was not below 25 nM and the “GSPT1 Ymin” value was “F (F = >75-100% remaining)”.

Regarding `Cn1ncc(-c2ccc3c(c2)CN(C2CCC(=O)NC2=O)C3=O)c1-c1cc(F)cc(F)c1` (centres unmarked) [Example 139], at CK1α (six hours incubation), the “CK1α Ymin” value is on record as “E (E = >25-75% remaining)” and the DC50 was not below 25 nM. At GSPT1 (six hours incubation), the 50% degradation concentration (DC50) is less than 25 nM and the “GSPT1 Ymin” value is reported as “F (F = >75-100% remaining)”.
